Test results as given in US20190183843A9, “USE OF DIANHYDROGALACTITOL OR DERIVATIVES OR ANALOGS THEREOF FOR TREATMENT OF PEDIATRIC CENTRAL NERVOUS SYSTEM MALIGNANCIES” (DelMar Pharmaceuticals, Inc., priority 2015, published 2019).
pIC50: −log10 of the molar value. Like-named read-outs stand apart in the source and are kept apart here.

Experiments:
[1] = target: glycogen synthase kinase-30 (GSK-30) (Homo sapiens, UniProt P49841); conditions: cited from earlier work
[2] = system: MGMT-positive or -negative, MMR-proficient or -deficient cells; conditions: cited from earlier work
[3] = system: cisplatin-resistant 2780CP-16, OVCAR-10, Hey and OVCA-433 tumor models; experiment: MTT growth inhibition assay, 5-day drug exposure; format: cell-based, human; conditions: 5-day exposure
Text: (§1) The analysis of cytotoxicity, depicted as IC50 (concentration inhibiting growth of cells by 50%) or as fraction of cells affected (Fa) at a specified concentration of drug, is based on the data generated from the MTT growth inhibition assay following a 5-day drug exposure period. The IC50 values were generated by fitting Fa values from a range of drug concentrations to a four-parameter logistic dose-response sigmoidal equation using the Graphpad Prism v.6 software. Resistance factors (for the ovarian panel) were calculated as the ratio of IC50 in the specific tumor model to the IC50 in A2780.
(§2) Cytotoxicity was determined against cisplatin-sensitive A2780 and cisplatin-resistant 2780CP-16, OVCAR-10, Hey and OVCA-433 tumor models with different status for p53 and mismatch repair (MMR) DNA repair system (A2780: p53 wild-type, MMR proficient; 2780CP-16: heterogenic p53 wt/V172Fmut, MMR deficient; OVCAR-10: p53 V172F mutant, MMR proficient; HEY: p53 P72R mutant, MMR proficient; OVCA-433: p53 P72R mutant, MMR proficient). IC50 for dianhydrogalactitol was about 0.5 μM in A2780 cells and in the 2-4 μM range for the cisplatin-resistant models. The activity (as IC50) of dianhydrogalactitol relative to cisplatin and oxaliplatin is shown as bar plots in FIG. 38. […] Oxaliplatin, in contrast, had good potencies against both cisplatin-sensitive (0.2 μM) and cisplatin-resistant cells (0.2-0.6 μM).

[4] = cited from earlier work
A2780 cells = experiment: MTT growth inhibition assay, 5-day drug exposure; format: cell-based, human; conditions: 5-day exposure, cisplatin-sensitive A2780
Text: as §1, §2

Sequence of glycogen synthase kinase-30 (GSK-30) (P49841 whole entry): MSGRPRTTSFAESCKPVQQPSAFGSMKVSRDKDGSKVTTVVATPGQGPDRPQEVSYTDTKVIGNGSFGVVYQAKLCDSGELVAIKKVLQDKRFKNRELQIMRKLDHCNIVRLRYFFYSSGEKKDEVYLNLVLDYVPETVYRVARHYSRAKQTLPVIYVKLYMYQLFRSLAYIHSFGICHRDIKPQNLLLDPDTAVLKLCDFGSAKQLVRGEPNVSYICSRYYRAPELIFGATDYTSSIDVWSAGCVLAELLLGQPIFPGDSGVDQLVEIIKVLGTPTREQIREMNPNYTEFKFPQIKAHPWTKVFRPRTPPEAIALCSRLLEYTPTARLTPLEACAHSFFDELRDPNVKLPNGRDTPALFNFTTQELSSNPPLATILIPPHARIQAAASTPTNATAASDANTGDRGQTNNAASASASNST

## CN1C(=O)/C(=C2/C(=O)Nc3ccccc32)c2ccccc21 [Meisoindigo]
[1]
  concentration inhibiting GSK: 5 to 50 nM

## N.N.[Cl][Pt][Cl] [cisplatin]
[2]; MGMT Negative, MMR-Deficient
  sensitivity: Resistant
[2]; MGMT Negative, MMR-Proficient
  sensitivity: Sensitive
[2]; MGMT Positive, MMR-Deficient
  sensitivity: Resistant
[2]; MGMT Positive, MMR-Proficient
  sensitivity: Sensitive
[3]
  pIC50: 5.10 to 5.52

## O[C@H]([C@H](O)[C@@H](O)CBr)[C@H](O)CBr [dibromodulcitol]
[4]
  absorption by the oral route: rapid and fairly complete

## O=C1[O][Pt]2([NH][C@@H]3CCCC[C@H]3[NH]2)[O]C1=O [oxaliplatin, reference compound]
A2780 cells
  pIC50: 6.70
[3]
  pIC50: 6.22 to 6.70
